Values of other authors as cited in patent US20260083754A1, “CORTICOSTEROID CONTAINING ORALLY DISINTEGRATING TABLET COMPOSITIONS FOR EOSINOPHILIC ESOPHAGITIS” (Ellodi Pharmaceuticals, L.P., priority 2013, published 2026).

Key:
[1] = system: adolescent and adult patients with active EoE; settings: 15-day course, 1 mg twice daily

Row | SMILES | tolerability [1] | patients who achieved histologic remission (EoE patients; FP-treated patients, placebo 9%, P=0.047) [%] | esophageal eosinophil levels (EoE patients; more pronounced effect in non-allergic individuals)
1 | CCCC1O[C@@H]2C[C@H]3[C@@H]4CCC5=CC(=O)C=C[C@]5(C)[C@H]4[C@@H](O)C[C@]3(C)[C@]2(C(=O)CO)O1 (stereo partly drawn) [budesonide] | well tolerated |  | 
2 | CCC(=O)O[C@]1(C(=O)SCF)[C@H](C)C[C@H]2[C@@H]3C[C@H](F)C4=CC(=O)C=C[C@]4(C)[C@@]3(F)[C@@H](O)C[C@@]21C [FP, fluticasone propionate] |  | 50 | decreased
